The subject of this assay is shunt pathway. The assay can be described thus: Test Code 036 (C-Shunt inhibitor): lysis of fragile human erythrocytes in autologous serum via shunt pathway activated by cobra venom factor. It counts as cell-based. The note with it: appropriate dilutions of test compound. The source says:
An active inhibitor protects C2 from C1 and C4; (ii) Test, Code 035 (c3-C9 inhibitor) -- This test determines the ability of the late components of human complement (C3-C9) to lyse EAC 142 in the presence of appropriate dilutions of the test compound. An active inhibitor protects EAC 142 from lysis by human C3-C9; (iii) Test, Code 036 (C-Shunt inhibitor) -- In this test human erythrocytes rendered fragile are lysed in autologous serum via the shunt pathway activated by cobra venom factor in the presence of appropriate dilutions of the test compound. Inhibition of the shunt pathway results in failure of lysis; (iv) Forssman Vasculitis Test -- Here, the well known complement dependent lesion, Forssman vasculitis, is produced in guinea pigs by intradermal injection of rabbit anti-Forssman antiserum. […]

Structures are written as SMILES.

As to `O=C(N[C@H]1C(OS(=O)(=O)O)O[C@H](COS(=O)(=O)O)[C@@H](OS(=O)(=O)O)[C@@H]1OS(=O)(=O)O)c1cc(C(=O)N[C@H]2C(OS(=O)(=O)O)O[C@H](COS(=O)(=O)O)[C@@H](OS(=O)(=O)O)[C@@H]2OS(=O)(=O)O)cc(C(=O)N[C@H]2C(OS(=O)(=O)O)O[C@H](COS(=O)(=O)O)[C@@H](OS(=O)(=O)O)[C@@H]2OS(=O)(=O)O)c1` (stereo partly drawn) [2,2',2"-[s-Phenenyltris(carbonylimino)]tris-2-deoxy-D-glucopyranose dodecakis (H-sulfate) dodecasalt with trimethylamine], the “Shunt Inhibition 036 Wells” value is recorded as “+3 Wells”.

For the origin of these results see patent US4120954A, “2,2',2"-[S-Phenenyltris(carbonylimino) ]tris-2-deoxy-D-glucopyranose and salts thereof” (American Cyanamid Company, priority 1977, dated 1978).
